Results: patent US6245917A, “Crystalline sodium phenytoin monohydrate” (Warner-Lambert Company, priority 1999, dated 2001)

Test: Preliminary solubility studies, ethanol versus water
Type: physicochemical

Structure (SMILES): O=C1NC(=O)C(c2ccccc2)(c2ccccc2)N1 [sodium phenytoin]
- solubility in ethanol compared with water: less soluble in ethanol than it is in water
